In ChEMBL document CHEMBL1201862, “PubChem BioAssay data set” (2004):
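Five compound concentrations were applied to cells in 96-well plates for 48 hours; endpoints were derived by simple linear interpolation of the resulting dose-response curve. Abbreviation: GI50, concentration required for 50% inhibition of growth.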 Active and inactive are the calls of the source. No stated cut-off is given here; in the data, active = GI50 up to about 1.1 µM and inactive = higher.

Columns and labels:
Test in all cases: DTP human tumour cell line panel, 48 h
Malme-3M = tested on: Malme-3M
786-0 = tested on: 786-0
MDA-MB-231 = tested on: MDA-MB-231
K562 = tested on: K562
SNB-75 = tested on: SNB-75
IGROV-1 = tested on: IGROV-1
HL-60 = tested on: HL-60
HCT-116 = tested on: HCT-116
T47D = tested on: T47D
A549 = tested on: A549
BT-549 = tested on: BT-549
SF-539 = tested on: SF-539
NCI/ADR-RES = tested on: NCI/ADR-RES
CCRF-CEM = tested on: CCRF-CEM
CAKI-1 = tested on: CAKI-1
RPMI-8226 = tested on: RPMI-8226
SF-268 = tested on: SF-268
SNB-19 = tested on: SNB-19
MDA-MB-435 = tested on: MDA-MB-435
KM12 = tested on: KM12
HCC 2998 = tested on: HCC 2998
MOLT-4 = tested on: MOLT-4
A498 = tested on: A498
OVCAR-8 = tested on: OVCAR-8
MCF7 = tested on: MCF7
SK-MEL-5 = tested on: SK-MEL-5
U-251 = tested on: U-251
RXF 393 = tested on: RXF 393
SF-295 = tested on: SF-295
NCI-H460 = tested on: NCI-H460
OVCAR-3 = tested on: OVCAR-3
SK-OV-3 = tested on: SK-OV-3
HCT-15 = tested on: HCT-15
M14 = tested on: M14
TK-10 = tested on: TK-10
DU-145 = tested on: DU-145
OVCAR-5 = tested on: OVCAR-5
SK-MEL-2 = tested on: SK-MEL-2
HOP-62 = tested on: HOP-62
UACC-62 = tested on: UACC-62
NCI-H522 = tested on: NCI-H522
SW-620 = tested on: SW-620
HT-29 = tested on: HT-29
LOX IMVI = tested on: LOX IMVI
Hs-578T = tested on: Hs-578T
MDA-N = tested on: MDA-N
ACHN = tested on: ACHN
OVCAR-4 = tested on: OVCAR-4
SR = tested on: SR
COLO 205 = tested on: COLO 205
NCI-H226 = tested on: NCI-H226
NCI-H23 = tested on: NCI-H23
PC-3 = tested on: PC-3
EKVX = tested on: EKVX
SK-MEL-28 = tested on: SK-MEL-28
UO-31 = tested on: UO-31
UACC-257 = tested on: UACC-257
SN12C = tested on: SN12C

For O=C(O)CCn1cnc2c(S)ncnc21, the GI50 (Malme-3M) was > 100 µM (inactive), the GI50 (786-0) was > 100 µM (inactive) and the GI50 (MDA-MB-231) was > 100 µM (inactive). The GI50 (K562) was > 100 µM (inactive), the GI50 (SNB-75) was > 100 µM (inactive) and the GI50 (IGROV-1) was > 100 µM (inactive). For the same compound, the GI50 (HL-60) was > 100 µM (inactive), the GI50 (HCT-116) was > 100 µM (inactive) and the GI50 (T47D) was > 100 µM (inactive). The GI50 (A549) was > 100 µM (inactive), the GI50 (BT-549) was > 100 µM (inactive) and the GI50 (SF-539) was > 100 µM (inactive). For the same compound, the GI50 (NCI/ADR-RES) was > 100 µM (inactive), the GI50 (CCRF-CEM) was > 100 µM (inactive) and the GI50 (CAKI-1) was > 100 µM (inactive). For the same compound, the GI50 (RPMI-8226) was > 100 µM (inactive), the GI50 (SF-268) was > 100 µM (inactive) and the GI50 (SNB-19) was > 100 µM (inactive). For the same compound, the GI50 (MDA-MB-435) was > 100 µM (inactive), the GI50 (KM12) was > 100 µM (inactive) and the GI50 (HCC 2998) was > 100 µM (inactive). For the same compound, the GI50 (MOLT-4) was > 100 µM (inactive), the GI50 (A498) was > 100 µM (inactive) and the GI50 (OVCAR-8) was > 100 µM (inactive). The GI50 (MCF7) was > 100 µM (inactive), the GI50 (SK-MEL-5) was > 100 µM (inactive) and the GI50 (U-251) was > 100 µM (inactive). The GI50 (RXF 393) was > 100 µM (inactive), the GI50 (SF-295) was > 100 µM (inactive) and the GI50 (NCI-H460) was > 100 µM (inactive). For the same compound, the GI50 (OVCAR-3) was > 100 µM (inactive), the GI50 (SK-OV-3) was > 100 µM (inactive) and the GI50 (HCT-15) was greater than 100 µM. For the same compound, the GI50 (M14) was > 100 µM (inactive), the GI50 (TK-10) was > 100 µM (inactive) and the GI50 (DU-145) was > 100 µM (inactive). For the same compound, the GI50 (OVCAR-5) was > 100 µM (inactive), the GI50 (SK-MEL-2) was > 100 µM (inactive) and the GI50 (HOP-62) was > 100 µM (inactive). The GI50 (UACC-62) was > 100 µM (inactive), the GI50 (NCI-H522) was > 100 µM (inactive) and the GI50 (SW-620) was > 100 µM (inactive). For the same compound, the GI50 (HT-29) was > 100 µM (inactive), the GI50 (LOX IMVI) was > 100 µM (inactive) and the GI50 (Hs-578T) was > 100 µM (inactive). For the same compound, the GI50 (MDA-N) was > 100 µM (inactive), the GI50 (ACHN) was > 100 µM (inactive) and the GI50 (OVCAR-4) was > 100 µM (inactive). The GI50 (SR) was > 100 µM (inactive), the GI50 (COLO 205) was > 100 µM (inactive) and the GI50 (NCI-H226) was > 100 µM (inactive). The GI50 (NCI-H23) was > 100 µM (inactive), the GI50 (PC-3) was > 100 µM (inactive) and the GI50 (EKVX) was > 100 µM (inactive). The GI50 (SK-MEL-28) was > 100 µM (inactive), the GI50 (UO-31) was > 100 µM (inactive) and the GI50 (UACC-257) was > 100 µM (inactive). For the same compound, the GI50 (SN12C) was > 100 µM (inactive).
With O=C1/C(=C/c2ccc(Br)s2)NC(=S)N1CN1CCCCC1 the GI50 (Malme-3M) was 58.7 µM (inactive), the GI50 (786-0) was 36.4 µM (inactive) and the GI50 (MDA-MB-231) was 62.4 µM (inactive). For the same compound, the GI50 (K562) was 23.1 µM (inactive), the GI50 (SNB-75) was 44.6 µM (inactive) and the GI50 (IGROV-1) was 42.1 µM (inactive). For the same compound, the GI50 (HL-60) was 15.4 µM (inactive), the GI50 (HCT-116) was 31 µM (inactive) and the GI50 (T47D) was 30.5 µM (inactive). The GI50 (BT-549) was 25.9 µM (inactive), the GI50 (NCI/ADR-RES) was 28.8 µM (inactive) and the GI50 (CAKI-1) was 32.4 µM (inactive). For the same compound, the GI50 (RPMI-8226) was 17.6 µM (inactive), the GI50 (SF-268) was 39.4 µM (inactive) and the GI50 (SNB-19) was 46.9 µM (inactive). For the same compound, the GI50 (MDA-MB-435) was 30 µM (inactive), the GI50 (KM12) was 35.6 µM (inactive) and the GI50 (HCC 2998) was 31 µM (inactive). The GI50 (MOLT-4) was 23.4 µM (inactive), the GI50 (A498) was 22.9 µM (inactive) and the GI50 (OVCAR-8) was 33.3 µM (inactive). The GI50 (MCF7) was 20.6 µM (inactive), the GI50 (SK-MEL-5) was 0.317 µM (active) and the GI50 (U-251) was 28.8 µM (inactive). For the same compound, the GI50 (RXF 393) was 21.1 µM (inactive), the GI50 (SF-295) was 30.5 µM (inactive) and the GI50 (NCI-H460) was 36.1 µM (inactive). For the same compound, the GI50 (OVCAR-3) was 22.4 µM (inactive), the GI50 (HCT-15) was 27.9 µM and the GI50 (TK-10) was 34.5 µM (inactive). For the same compound, the GI50 (DU-145) was 38.1 µM (inactive), the GI50 (OVCAR-5) was 76.6 µM (inactive) and the GI50 (SK-MEL-2) was 0.678 µM (active). The GI50 (HOP-62) was 75 µM (inactive), the GI50 (UACC-62) was 26.6 µM (inactive) and the GI50 (NCI-H522) was 23.3 µM (inactive). The GI50 (SW-620) was 33 µM (inactive), the GI50 (HT-29) was 33.2 µM (inactive) and the GI50 (LOX IMVI) was 21.5 µM (inactive). For the same compound, the GI50 (Hs-578T) was 51.4 µM (inactive), the GI50 (MDA-N) was 33.9 µM (inactive) and the GI50 (ACHN) was 46 µM (inactive). The GI50 (OVCAR-4) was 36.8 µM (inactive), the GI50 (SR) was 15.8 µM (inactive) and the GI50 (COLO 205) was 18.1 µM (inactive). The GI50 (NCI-H226) was 32 µM (inactive), the GI50 (NCI-H23) was 32.4 µM (inactive) and the GI50 (PC-3) was 28.2 µM (inactive). The GI50 (EKVX) was 9.35 µM (inactive), the GI50 (SK-MEL-28) was 41.1 µM (inactive) and the GI50 (UO-31) was 24.5 µM (inactive). For the same compound, the GI50 (UACC-257) was 33.3 µM (inactive) and the GI50 (SN12C) was 34.8 µM (inactive).
